Data published in patent US6525001B1, “Substituted pyrimidine and pyridine herbicides” (Mid-American Commercialization Corporation, priority 1997, dated 2003).

Assays:
Format in all cases: in vivo
Design in all cases: key: 0 is no effect; 10 is complete control
[1] = system: duck salad (Heteranthera limosa); test: Test B flood test
Procedure, shortened: (§1)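 Read-out is a visual response score from 0 (no effect) to 10 (complete control), assigned by comparison with untreated controls. Treatment was applied at the 2-leaf stage, and plants stayed in the greenhouse for twelve to sixteen days before scoring.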

[2] = system: bamyardgrass (Echinochloa crus-galli); test: Test B flood test
Procedure, shortened: as §1

[3] = system: rice (Oryza sativa); test: Test B flood test
Procedure, shortened: as §1

[4] = system: smallflower flatsedge (Cyperus difformis); test: Test B flood test
Procedure, shortened: as §1

[5] = system: cocklebur (Xanthium strumarium); test: Test B pre-/postemergence; details: for Cocklebur plant response rating: Preemergence
Procedure, shortened: (§2)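 Compounds in a surfactant-containing, non-phytotoxic solvent blend are applied to freshly planted seed (preemergence) and, concurrently, to seedlings of 2 to 18 cm at 1–4 leaves (postemergence). Plants stay in the greenhouse twelve to sixteen days and are then scored visually from 0 (no effect) to 10 (complete control).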

[6] = system: corn (Zea mays); test: Test B pre-/postemergence; details: for Corn plant response rating: Preemergence
Procedure, shortened: as §2

[7] = system: blackgrass (Alopecurus myosuroides); test: Test B pre-/postemergence; details: for Blackgrass plant response rating: Preemergence
Procedure, shortened: as §2

[8] = system: rape (Brassica napus); test: Test B pre-/postemergence
Procedure, shortened: as §2

[9] = system: wild oat (Avena fatua); test: Test B pre-/postemergence
Procedure, shortened: as §2

[10] = system: momingglory (Ipomoea hederacea); test: Test B pre-/postemergence
Procedure, shortened: as §2

[11] = system: soybean (Glycine max); test: Test B pre-/postemergence
Procedure, shortened: as §2

[12] = system: broadleaf signalgrass (Brachiaria decumbens); test: Test B pre-/postemergence; details: for B. signalgrass plant response rating: Preemergence
Procedure, shortened: as §2

[13] = system: wheat (Triticum aestivum); test: Test B pre-/postemergence
Procedure, shortened: as §2

[14] = system: velvetleaf (Abutilon theophrasti); test: Test B pre-/postemergence
Procedure, shortened: as §2

[15] = system: crabgrass (Digitaria sanguinalis); test: Test B pre-/postemergence; details: for Crabgrass plant response rating: Preemergence
Procedure, shortened: as §2

[16] = system: giant foxtail (Setaria faberii); test: Test B pre-/postemergence
Procedure, shortened: as §2

[17] = system: bedstraw (Galium aparine); test: Test B pre-/postemergence; details: for Bedstraw plant response rating: Preemergence
Procedure, shortened: as §2

[18] = system: pigweed (Amaranthus retroflexus); test: Test B pre-/postemergence
Procedure, shortened: as §2

[19] = system: purple nutsedge (Cyperus rotundus); test: Test B pre-/postemergence
Procedure, shortened: as §2

[20] = system: sugar beet (Beta vulgaris); test: Test B pre-/postemergence
Procedure, shortened: as §2

[21] = Rate 62 g/ha, Postemergence (flood test)
[22] = Rate 125 g/ha, Postemergence, flood test
[23] = Rate 250 g/ha, Postemergence (flood test species)
[24] = Rate 125 g/ha, Postemergence section (flood test species)
[25] = Rate 250 g/ha, Postemergence (so in the source)

COc1cnc(-n2ccc(C(F)(F)F)n2)nc1Cc1cccc(C(F)(F)F)c1 [Compound 45]
0: Plant response rating, Ducksalad [1, 21] | Plant response rating, Ducksalad [1, 22] | Plant response rating, Ducksalad [1, 23] | Plant response rating, Barnyardgrass [2, 21] | Plant response rating, Barnyardgrass [2, 22] | Plant response rating, Barnyardgrass [2, 23] | Plant response rating, Rice [3, 21] | Rice plant response rating [3, 24] | Plant response rating, Rice [3, 23] | Plant response rating, S. Flatsedge [4, 21] | S. Flatsedge plant response rating [4, 24] | Plant response rating, S. Flatsedge [4, 23] | Plant response rating, Cocklebur ([5]; Rate 62 g/ha, Postemergence) | Cocklebur plant response rating ([5]; Rate 62 g/ha) | Plant response rating, Cocklebur ([5]; Rate 125 g/ha, Postemergence) | Cocklebur plant response rating ([5]; Rate 125 g/ha) | Plant response rating, Cocklebur ([5]; Rate 250 g/ha, Postemergence) | Plant response rating, Cocklebur [5, 25] | Plant response rating, Corn ([6]; Rate 62 g/ha, Postemergence) | Corn plant response rating ([6]; Rate 62 g/ha) | Plant response rating, Corn ([6]; Rate 125 g/ha, Postemergence) | Corn plant response rating ([6]; Rate 125 g/ha) | Plant response rating, Corn ([6]; Rate 250 g/ha, Postemergence) | Plant response rating, Corn [6, 25] | Plant response rating, Blackgrass ([7]; Rate 62 g/ha, Postemergence) | Blackgrass plant response rating ([7]; Rate 62 g/ha) | Plant response rating, Blackgrass ([7]; Rate 125 g/ha, Postemergence) | Blackgrass plant response rating ([7]; Rate 125 g/ha) | Plant response rating, Blackgrass ([7]; Rate 250 g/ha, Postemergence) | Plant response rating, Blackgrass [7, 25] | Plant response rating, Rape ([8]; Rate 62 g/ha, Postemergence) | Rape plant response rating ([8]; Rate 62 g/ha, Preemergence) | Rape plant response rating ([8]; Rate 125 g/ha, Postemergence) | Rape plant response rating ([8]; Rate 125 g/ha, Preemergence) | Plant response rating, Rape ([8]; Rate 250 g/ha, Postemergence) | Plant response rating, Rape [8, 25] | Wild oats plant response rating ([9]; Rate 62 g/ha, Postemergence) | Wild oats plant response rating ([9]; Rate 62 g/ha, Preemergence) | Wild oats plant response rating ([9]; Rate 125 g/ha, Postemergence) | Plant response rating, Wild oats ([9]; Rate 125 g/ha, Preemergence) | Plant response rating, Wild oats ([9]; Rate 250 g/ha, Postemergence) | Plant response rating, Wild oats [9, 25] | Plant response rating, Morningglory ([10]; Rate 62 g/ha, Postemergence) | Morningglory plant response rating ([10]; Rate 62 g/ha, Preemergence) | Morningglory plant response rating ([10]; Rate 125 g/ha, Postemergence) | Morningglory plant response rating ([10]; Rate 125 g/ha, Preemergence) | Plant response rating, Morningglory ([10]; Rate 250 g/ha, Postemergence) | Plant response rating, Morningglory [10, 25] | Plant response rating, Soybean ([11]; Rate 62 g/ha, Postemergence) | Soybean plant response rating ([11]; Rate 62 g/ha, Preemergence) | Soybean plant response rating ([11]; Rate 125 g/ha, Postemergence) | Plant response rating, Soybean ([11]; Rate 125 g/ha, Preemergence) | Plant response rating, Soybean ([11]; Rate 250 g/ha, Postemergence) | Plant response rating, Soybean [11, 25] | Plant response rating, B. signalgrass ([12]; Rate 62 g/ha, Postemergence) | B. signalgrass plant response rating ([12]; Rate 62 g/ha) | Plant response rating, B. signalgrass ([12]; Rate 125 g/ha, Postemergence) | B. signalgrass plant response rating ([12]; Rate 125 g/ha) | Plant response rating, B. signalgrass ([12]; Rate 250 g/ha, Postemergence) | Plant response rating, B. signalgrass ([12]; Rate 250 g/ha, Postemergence as printed in head r139 (second section for compounds 26-50)) | Wheat plant response rating ([13]; Rate 62 g/ha, Postemergence) | Wheat plant response rating ([13]; Rate 62 g/ha, Preemergence) | Wheat plant response rating ([13]; Rate 125 g/ha, Postemergence) | Plant response rating, Wheat ([13]; Rate 125 g/ha, Preemergence) | Plant response rating, Wheat ([13]; Rate 250 g/ha, Postemergence) | Plant response rating, Wheat [13, 25] | Plant response rating, Velvetleaf ([14]; Rate 62 g/ha, Postemergence) | Velvetleaf plant response rating ([14]; Rate 62 g/ha, Preemergence) | Velvetleaf plant response rating ([14]; Rate 125 g/ha, Postemergence) | Plant response rating, Velvetleaf ([14]; Rate 125 g/ha, Preemergence) | Plant response rating, Velvetleaf ([14]; Rate 250 g/ha, Postemergence) | Plant response rating, Velvetleaf [14, 25] | Plant response rating, Crabgrass ([15]; Rate 62 g/ha, Postemergence) | Crabgrass plant response rating ([15]; Rate 62 g/ha) | Plant response rating, Crabgrass ([15]; Rate 125 g/ha, Postemergence) | Crabgrass plant response rating ([15]; Rate 125 g/ha) | Plant response rating, Crabgrass ([15]; Rate 250 g/ha, Postemergence) | Plant response rating, Crabgrass [15, 25] | Plant response rating, Giant foxtail ([16]; Rate 62 g/ha, Postemergence) | Giant foxtail plant response rating ([16]; Rate 62 g/ha, Preemergence) | Giant foxtail plant response rating ([16]; Rate 125 g/ha, Postemergence) | Giant foxtail plant response rating ([16]; Rate 125 g/ha, Preemergence) | Plant response rating, Giant foxtail ([16]; Rate 250 g/ha, Postemergence) | Plant response rating, Giant foxtail [16, 25] | Plant response rating, Bedstraw ([17]; Rate 62 g/ha, Postemergence) | Bedstraw plant response rating ([17]; Rate 62 g/ha) | Plant response rating, Bedstraw ([17]; Rate 125 g/ha, Postemergence) | Bedstraw plant response rating ([17]; Rate 125 g/ha) | Plant response rating, Bedstraw ([17]; Rate 250 g/ha, Postemergence) | Plant response rating, Bedstraw [17, 25] | Plant response rating, Redroot pigweed ([18]; Rate 62 g/ha, Postemergence) | Redroot pigweed plant response rating ([18]; Rate 62 g/ha, Preemergence) | Redroot pigweed plant response rating ([18]; Rate 125 g/ha, Postemergence) | Redroot pigweed plant response rating ([18]; Rate 125 g/ha, Preemergence) | Plant response rating, Redroot pigweed ([18]; Rate 250 g/ha, Postemergence) | Plant response rating, Redroot pigweed [18, 25] | Plant response rating, Nutsedge ([19]; Rate 62 g/ha, Postemergence) | Nutsedge plant response rating ([19]; Rate 62 g/ha, Preemergence) | Nutsedge plant response rating ([19]; Rate 125 g/ha, Postemergence) | Nutsedge plant response rating ([19]; Rate 125 g/ha, Preemergence) | Plant response rating, Nutsedge [19, 25] | Plant response rating, Sugarbeets ([20]; Rate 62 g/ha, Postemergence) | Sugarbeets plant response rating ([20]; Rate 62 g/ha, Preemergence) | Sugarbeets plant response rating ([20]; Rate 125 g/ha, Postemergence) | Plant response rating, Sugarbeets ([20]; Rate 125 g/ha, Preemergence) | Plant response rating, Sugarbeets ([20]; Rate 250 g/ha, Postemergence) | Plant response rating, Sugarbeets [20, 25]
